US20030021796A1, “Method of enhancing T cell immunity by selection of antigen specific T cells” (priority 2001, published 2003)
“Also recorded” adds a separate entry of the source.

Tests used:
transgenic CD4^+ T cells = test: Selection of transgenic CD4^+ T cells in TCR^TgTCRα^−→H-2M^−Ii^− radiation chimeras; conditions: mouse, in vivo
Description: Also disclosed by the inventors is the development of transgenic CD4^+ T cells in chimeras made by reconstituting H-2M^−Ii^− mice with the bone marrow from TCR^TgTCRα^− mice (TCR^TgTCRα^−→H-2M^−Ii^− chimeras). The development of thymocytes in such chimeras is arrested at the CD4^+CD8^+ stage despite the presence of selecting wild type A^b/self-peptide complexes on bone marrow-derived dendritic cells. […] This in vivo model relates that, in contrast to the reaggregation cultures (Yastumo et al., 2000), radioresistant thymic epithelial cells are required to provide an agonist signal that induces thymocyte differentiation towards CD4^+ lineage in vivo.

[1] = test system: transgenic CD4^+ thymocytes; test: Positive selection of CD4^+ thymocytes after peptide injection into TCR^TgTCRα^−H2-M^−Ii^− mice (flow cytometry of thymus); assay type: in vivo, mouse
Description: Mice. The TCR genes were cloned from T cell hybridoma specific for analogs of the PCC(43-58) peptide and expressed in VA-hCD2 cassette (Ignatowicz et al., 1997; Kraj et al., 2001; Zhumabekov et al., 1995). All TCR transgenic mice were made by co-microinjection of the respective […] and TCRβ constructs into fertilized eggs of F1 (C57BL/6×CBA/Ca) mice. TCR Tg mice were crossed to C57B16/TCRα^− (Jackson Laboratory, ME) mice and to mice deficient in H2-M (kindly provided by E. Bikoff and R. Germain) and Ii (kindly provided by L. van Kaer) to obtain TCR^TgTCRα^− H2-M^−Ii^−.
Flow cytometry analysis. Monoclonal antibodies specific for CD4(RM4-5), CD8(53-6.7), VβB8(F23.1), CD69(H1.2F3), CD44(IM7) and CD62L(MEL-14) were purchased from PharMingen (San Diego, Calif.) and used according to manufacturer's recommendations. Cells were analyzed using a FACSCalibur instrument (Becton Dickinson, San Jose, Calif.) and CellQuest software. For intracellular stain cells were first stained for CD4 and CD8, fixed in 2% paraformaldehyde, permeabilized in 0.1% Tween-20 and stained with anti-bcl-2 antibody (Pharmingen) according to manufacturer instruction.
Peptide injections and surgical procedures. TCR^TgTCRα^− and TCR^TgTCRαH2-M^−Ii^− were injected i.p. with agonist and control peptides dissolved in PBS. After indicated time mice were sacrificed, thymus and lymph nodes were collected and single cell suspensions were prepared. Pups were injected with 2 μg of peptide subcutaneously 12-24 hours after birth and thymi were transplanted into recipient mice 24 hours after injection. 5-8 week old TCR^TgTCRα^− H2-M^−Ii^− mice were used for thymectomy or as thymic transplant recipients. Surgical procedures were performed as described (Coligan et al., 1997). Mice were handled according with the institutional guidance.

transgenic thymocytes = test: Fetal thymic organ cultures (FTOC) from TgTCRα^−H-2M^−Ii^− mice with peptide; assay type: cell-based, mouse; conditions: continuous delivery of peptide at low concentration
Description: (§1) The TgTCRα^−H-2M^−Ii^− system enables the visualization of thymocyte positive selection in real time and in the native intrathymic environment. An in vitro system was setup where the transgenic thymocytes undergo efficient positive selection and commit to the CD4^+ lineage. […] These observations agreed with the previous reports in which CD8^+, but not CD4+, T cells could be positively selected by the specific peptide in FTOCs (Kenty et al., 1998; Liblau et al, 1996). Therefore, neonatal thymic organ cultures (NTOC) were established from TgTCRα^−-H-2M^−Ii^− neonates. The neonates received a single i.p. injection of the PCC50V54A peptide just after birth and were sacrificed 24 hours later when their thymuses were harvested.

[2] = test system: peptide selected CD4^+ cells; test: Antigen response (proliferation) of lymph node CD4^+ cells from peptide-injected TCR^TgTCRα^−H2-M^−Ii^− mice; assay type: cell-based, mouse
Procedure: Antigen response of TCR transgenic cells. Proliferation of lymph node cells isolated from TCR^TgTCRα^−and TCR^TgTCRα^−2-M^−Ii^− mice injected with the selecting peptide was measured in response to antigen. Response of the TCR^TgTCRα^− lymph node cells to different agonist peptides was measured by proliferation assay in a 96-well plate. 10^5 responder cells were stimulated with peptides presented by 5×10^5 irradiated C57BL6 splenocytes. Agonist peptides were used at concentrations of 0.01, 0.1, 0.5, 1.0, 2.5, 5.0, 10.0 and 20.0 μM. After 3 days cells were pulsed with 1 μCi of [^3H]thymidine added to each well and after 18 hours thymidine incorporation was measured. The sequences of peptides used were: PCC50V (AEGFSYTVANKNKGIT), PCC50L (AEGFSYTLANKNKGIT), PCC50V54A (AEGFSYTVANKAKGIT), PCC46A49A50V54A (AEGASYAVANKAKGIT), PCC50F54A (AEGFSYTFANKAKGIT), neutral ceramidase (AGFFQYTLYILASEG) and IgGVH (NADFKTPATLTVDKA). […] Proliferation was measured after 3 days by thymidine incorporation by pulsing cells with 1 μCi of [^3H] thymidine for 18 hours. […] For antagonism assays the percent of proliferation inhibition was calculated as 100-100*(thymidine incorporation in the presence of antagonist/thymidine incorporation in the absence of antagonist) (Lyons et al., 1996).

[3] = test system: TCR^TgTCRα^− lymph node cells; test: Proliferation of TCR transgenic lymph node cells stimulated with agonist peptides ([3H]thymidine incorporation); assay type: cell-based, mouse
Procedure: Antigen response of TCR transgenic cells. Proliferation of lymph node cells isolated from TCR^TgTCRα^−and TCR^TgTCRα^−2-M^−Ii^− mice injected with the selecting peptide was measured in response to antigen. Response of the TCR^TgTCRα^− lymph node cells to different agonist peptides was measured by proliferation assay in a 96-well plate. 10^5 responder cells were stimulated with peptides presented by 5×10^5 irradiated C57BL6 splenocytes. Agonist peptides were used at concentrations of 0.01, 0.1, 0.5, 1.0, 2.5, 5.0, 10.0 and 20.0 μM. After 3 days cells were pulsed with 1 μCi of [^3H]thymidine added to each well and after 18 hours thymidine incorporation was measured. The sequences of peptides used were: PCC50V (AEGFSYTVANKNKGIT), PCC50L (AEGFSYTLANKNKGIT), PCC50V54A (AEGFSYTVANKAKGIT), PCC46A49A50V54A (AEGASYAVANKAKGIT), PCC50F54A (AEGFSYTFANKAKGIT), neutral ceramidase (AGFFQYTLYILASEG) and IgGVH (NADFKTPATLTVDKA). All peptides were synthesized by FMOC (fluorenyl methoxycarbonyl) chemistry and purified by reversed-phase high-performance liquid chromatography. To compare the antigenic response of CD4^+ TCR Tg cells lymph node cells were collected from TCR^TgTCRα^− and TCR^TgTCRα^−H2-M^−Ii^− mice two weeks after peptide injection. Single cell suspensions were prepared and CD4^+ cells were sorted using magnetic beads coated with anti CD4 antibodies (MACS). Purity of sorted cells exceeded 85%. 2×10^4 of purified CD4^+ cells were used in proliferation assay. Cells were stimulated with increasing concentrations of agonist peptides presented by APCs from wild type or H2-M^−Ii^− mice. IgGVH derived peptide (20 μM) was used as a negative control. Peptides were presented by irradiated splenocytes from a C57BL6 mouse. Proliferation was measured after 3 days by thymidine incorporation by pulsing cells with 1 μCi of [^3H] thymidine for 18 hours. Antagonism assay was done by prepulsing 5×10^5 antigen-presenting cells per well for 2 hr. with 5 μM of the antigenic peptide PCC50V54A, washing, and then exposing them to varying concentrations of peptide analogs with 2×10^4 purified CD4^+ TCR^Tg lymphocytes as responder cells (Lyons et al., 1996). For antagonism assays the percent of proliferation inhibition was calculated as 100-100*(thymidine incorporation in the presence of antagonist/thymidine incorporation in the absence of antagonist) (Lyons et al., 1996).

[4] = test system: transgenic CD4^+ thymocytes; test: Neonatal thymic organ cultures (NTOC) from peptide-injected TgTCRα^−H-2M^−Ii^− neonates; assay type: cell-based, mouse; conditions: single i.p. injection just after birth, thymus harvested 24 hours later
Description: as §1

[5] = one i.p. injection of 50 μg, 24 hours

Sequence: AEGFSYTVANKAKGIT [PCC50V54A, analog of pigeon cytochrome C peptide PCC(43-58)]
- appearance / positive selection of mature CD4^+ T cells in chimeras (transgenic CD4^+ T cells): appeared only after injection
- cellularity of the thymus and number of apoptotic cells (TUNNEL assay and annexin V staining) ([1]; 20 μg, compared with controls): the same
- expression of TCR, CD69, bcl-2 on thymocytes ([1]; after injection of selecting peptide (20 μg, 48 hours)): became bcl-2+; also recorded: upregulated CD69 and bcl-2 expression; also recorded: upregulated TCR and CD69 expression; also recorded: Bcl-2 was upregulated
- positive selection of transgenic thymocytes ([1]; i.p., non-deleting dose (20 μg)): restored selection of CD4^+ single positive thymocytes
- CD25 phenotype of newly selected CD4^+ thymocytes ([1]; mouse, in vivo): CD25^−
- differentiation of thymocytes into single positive CD4^+ cells [1, 5]: differentiate into single positive CD4^+ cells
- total number of thymocytes [1, 5]: 161.5×10^6±54.4
- total number of thymocytes ([1]; one i.p. injection of 50 μg, 48 hours): 142.5×10^6±44.9
- duration of positive selection of CD4^+ thymocytes after a single injection ([1]; single injection): 14 days
- lineage commitment of thymocytes in FTOC (transgenic thymocytes): the majority of thymocytes committed to the CD8 lineage
- response of peptide selected CD4^+ cells to agonist peptides in vitro [2]: functional and respond to agonist peptides; also recorded: weakly respond in vitro
- agonist potency / agonist properties ([3]; in vitro stimulation of transgenic T cells): strong agonist
- recognition by the transgenic TCR / stimulation of transgenic cells ([3]; peptides presented by irradiated C57BL6 splenocytes): recognizes; also recorded: stimulate
- duration of continuous positive selection of CD4^+ thymocytes in NTOC [4]: 4 to 5 days
